Experimental data: the NIST ThermoML archive (doi:10.1021/je2007549)
± gives the expanded uncertainty stated by the source.

Test: xn = mol fraction of the nth substance listed
Details: 101 kPa, Liquid; for electrical conductivity: Direct current cell with electrodes; for viscosity: Falling or rolling sphere viscometry; for mass density: Vibrating tube method

CCCC[P+](CCCC)(CCCC)CCCN.C[C@H](N)C(=O)[O-] [(3-aminopropyl)tributylphosphonium L-alaninate] + O
Details	electrical conductivity [S/m]	mass density [kg/m3]	viscosity [mPa·s]
298.15 K, x2 = 0	0.0141 ± 0.00028	986.75 ± 5.3	804.88 ± 79
298.15 K, x2 = 0.25	0.0244 ± 0.00049	988.47 ± 3.3	597.85 ± 53
298.15 K, x2 = 0.5	0.0337 ± 0.00067	991.4 ± 1.9	429.73 ± 34
298.15 K, x2 = 0.75	0.0647 ± 0.0013	999.98 ± 0.84	208.66 ± 13
303.15 K, x2 = 0	0.0209 ± 0.00042	983.72 ± 5.2	561.4 ± 50
303.15 K, x2 = 0.25	0.032 ± 0.00064	985.39 ± 3.3	417.93 ± 33
303.15 K, x2 = 0.5	0.0439 ± 0.00088	988.27 ± 1.8	304.2 ± 22
303.15 K, x2 = 0.75	0.0859 ± 0.0017	996.76 ± 0.83	150.37 ± 8.2
313.15 K, x2 = 0	0.032 ± 0.00064	977.65 ± 5.2	291.07 ± 21
313.15 K, x2 = 0.25	0.0487 ± 0.00097	979.18 ± 3.3	222.26 ± 15
313.15 K, x2 = 0.5	0.0703 ± 0.0014	982.01 ± 1.8	163.31 ± 9.4
313.15 K, x2 = 0.75	0.134 ± 0.0027	990.22 ± 0.83	83.45 ± 3.8
323.15 K, x2 = 0	0.0464 ± 0.00093	971.62 ± 5.1	164.61 ± 10
323.15 K, x2 = 0.25	0.0727 ± 0.0015	973.04 ± 3.2	127.07 ± 6.9
323.15 K, x2 = 0.5	0.105 ± 0.0021	975.81 ± 1.8	95.01 ± 4.6
323.15 K, x2 = 0.75	0.195 ± 0.0039	983.57 ± 0.82	50.38 ± 2.1
333.15 K, x2 = 0	0.0649 ± 0.0013	965.71 ± 5	106.7 ± 5.7
333.15 K, x2 = 0.25	0.101 ± 0.002	966.97 ± 3.2	78.92 ± 3.8
333.15 K, x2 = 0.5	0.147 ± 0.0029	969.57 ± 1.8	59.3 ± 2.6
333.15 K, x2 = 0.75	0.265 ± 0.0053	976.99 ± 0.81	32.59 ± 1.4
343.15 K, x2 = 0	0.0884 ± 0.0018	959.97 ± 5	65.96 ± 3.3
343.15 K, x2 = 0.25	0.142 ± 0.0028	960.89 ± 3.1	53.07 ± 2.4
343.15 K, x2 = 0.5	0.193 ± 0.0039	963.3 ± 1.8	39.29 ± 1.8
343.15 K, x2 = 0.75	0.334 ± 0.0067	970.15 ± 0.8	22.27 ± 0.95

CC(C)C[C@H](N)C(=O)[O-].CCCC[P+](CCCC)(CCCC)CCCN [(3-aminopropyl)tributylphosphonium L-leucinate] + O
Details	electrical conductivity [S/m]	mass density [kg/m3]	viscosity [mPa·s]
298.15 K, x2 = 0	0.008 ± 0.00016	971.86 ± 5.1	1227.9 ± 140
298.15 K, x2 = 0.25	0.0114 ± 0.00023	973.97 ± 3.2	920.24 ± 93
298.15 K, x2 = 0.5	0.0173 ± 0.00035	978.04 ± 1.8	599.52 ± 53
298.15 K, x2 = 0.75	0.0395 ± 0.00079	987.11 ± 0.82	244.81 ± 16
303.15 K, x2 = 0	0.0108 ± 0.00022	968.8 ± 5.1	855.26 ± 85
303.15 K, x2 = 0.25	0.0154 ± 0.00031	970.91 ± 3.2	629.98 ± 57
303.15 K, x2 = 0.5	0.0232 ± 0.00046	974.9 ± 1.8	407.91 ± 32
303.15 K, x2 = 0.75	0.0515 ± 0.001	983.89 ± 0.82	174.05 ± 10
313.15 K, x2 = 0	0.0185 ± 0.00037	962.68 ± 5	417.9 ± 34
313.15 K, x2 = 0.25	0.0254 ± 0.00051	964.75 ± 3.2	308.75 ± 23
313.15 K, x2 = 0.5	0.0362 ± 0.00072	968.61 ± 1.8	209.07 ± 13
313.15 K, x2 = 0.75	0.0795 ± 0.0016	977.44 ± 0.81	94.21 ± 4.5
323.15 K, x2 = 0	0.0291 ± 0.00058	956.54 ± 5	224.29 ± 15
323.15 K, x2 = 0.25	0.0379 ± 0.00076	958.56 ± 3.1	169.8 ± 10
323.15 K, x2 = 0.5	0.0515 ± 0.001	962.52 ± 1.8	116.62 ± 6
323.15 K, x2 = 0.75	0.116 ± 0.0023	970.88 ± 0.8	55.71 ± 2.4
333.15 K, x2 = 0	0.0414 ± 0.00083	950.54 ± 4.9	130.46 ± 7.4
333.15 K, x2 = 0.25	0.0542 ± 0.0011	952.54 ± 3.1	101.73 ± 5.2
333.15 K, x2 = 0.5	0.0735 ± 0.0015	956.26 ± 1.7	72.42 ± 3.3
333.15 K, x2 = 0.75	0.161 ± 0.0032	964.27 ± 0.8	35.35 ± 1.5
343.15 K, x2 = 0	0.0605 ± 0.0012	944.58 ± 4.8	81.01 ± 4.1
343.15 K, x2 = 0.25	0.0761 ± 0.0015	946.54 ± 3.1	65.08 ± 3.1
343.15 K, x2 = 0.5	0.104 ± 0.0021	949.99 ± 1.7	47.47 ± 2.1
343.15 K, x2 = 0.75	0.214 ± 0.0043	957.61 ± 0.79	23.97 ± 1
